In data set [1] the target is T1, hOATP1B3 (Homo sapiens, UniProt Q9NPD5).
T1 sequence (Q9NPD5 1-702): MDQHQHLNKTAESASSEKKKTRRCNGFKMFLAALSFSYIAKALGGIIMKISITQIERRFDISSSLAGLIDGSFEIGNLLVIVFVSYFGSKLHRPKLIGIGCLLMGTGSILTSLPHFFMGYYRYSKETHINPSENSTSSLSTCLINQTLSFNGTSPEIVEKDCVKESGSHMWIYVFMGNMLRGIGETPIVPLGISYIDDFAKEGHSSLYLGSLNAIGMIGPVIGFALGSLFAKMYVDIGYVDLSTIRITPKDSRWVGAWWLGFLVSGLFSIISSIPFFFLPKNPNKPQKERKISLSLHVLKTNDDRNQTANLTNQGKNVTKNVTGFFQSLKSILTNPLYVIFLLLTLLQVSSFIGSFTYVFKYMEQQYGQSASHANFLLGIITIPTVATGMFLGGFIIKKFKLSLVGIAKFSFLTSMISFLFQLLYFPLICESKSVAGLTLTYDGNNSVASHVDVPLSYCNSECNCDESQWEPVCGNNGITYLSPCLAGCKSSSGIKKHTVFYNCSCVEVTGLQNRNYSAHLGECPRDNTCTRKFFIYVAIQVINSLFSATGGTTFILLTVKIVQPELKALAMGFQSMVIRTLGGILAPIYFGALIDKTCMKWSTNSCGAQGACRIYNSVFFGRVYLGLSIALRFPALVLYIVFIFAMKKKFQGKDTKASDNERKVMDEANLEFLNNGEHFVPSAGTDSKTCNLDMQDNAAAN
As to the kind of experiment: α-tocopherol uptake in HEK293 cells overexpressing hOATP1B3. It counts as in vitro ADME.

Data set [2] has as its system OATP1B2. As to the kind of experiment: Untargeted metabolomics of plasma and DRG, WT vs OATP1B2-deficient mice. It counts as in vivo, mouse. An excerpt: (A) Schematic overview of the untargeted metabolomics screen to discover an endogenous biomarker of OATP1B2. […] Positive fold change indicates higher plasma concentration in OATP1B2^–/– mice (n = 6 per group). […] (C) Volcano plot of differentially endogenous metabolites in untreated whole DRG samples of WT mice or OATP1B2^–/– mice. Negative fold change indicates lower DRG levels in OATP1B2^–/– mice (n = 6 per group). (D) Plasma levels and DRG/plasma ratios of α-tocopherol in WT mice or OATP1B2^–/– mice in secondary validation studies. […] Data are normalized to baseline levels observed in WT mice (n = 3 per group).

For data set [3], the system named is OATP1B2. As to the kind of experiment: Plasma level and DRG/plasma ratio of α-tocopherol in mice (biomarker of OATP1B2 function). It counts as in vivo, mouse.
The conditions of data set [4]: cited from earlier work.
Data set [5] has as its target T2, hOATP1B1 (Homo sapiens, UniProt Q9Y6L6).
T2 sequence (Q9Y6L6 1-691): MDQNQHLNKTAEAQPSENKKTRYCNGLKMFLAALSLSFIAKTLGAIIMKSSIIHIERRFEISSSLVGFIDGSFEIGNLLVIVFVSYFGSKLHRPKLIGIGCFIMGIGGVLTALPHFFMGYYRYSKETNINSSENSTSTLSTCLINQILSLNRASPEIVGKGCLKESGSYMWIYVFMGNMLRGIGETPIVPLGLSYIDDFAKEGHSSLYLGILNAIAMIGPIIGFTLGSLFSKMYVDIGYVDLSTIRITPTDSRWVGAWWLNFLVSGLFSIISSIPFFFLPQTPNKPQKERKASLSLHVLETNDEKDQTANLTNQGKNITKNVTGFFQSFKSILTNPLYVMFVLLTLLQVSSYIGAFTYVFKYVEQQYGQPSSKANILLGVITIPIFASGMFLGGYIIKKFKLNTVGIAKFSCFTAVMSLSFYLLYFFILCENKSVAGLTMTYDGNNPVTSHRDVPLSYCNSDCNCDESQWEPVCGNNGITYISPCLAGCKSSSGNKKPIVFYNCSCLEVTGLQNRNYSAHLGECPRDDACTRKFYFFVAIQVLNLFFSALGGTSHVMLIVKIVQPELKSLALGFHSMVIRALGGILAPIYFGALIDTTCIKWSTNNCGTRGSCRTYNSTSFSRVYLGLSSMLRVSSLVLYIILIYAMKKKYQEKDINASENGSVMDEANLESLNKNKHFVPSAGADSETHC
As to the kind of experiment: α-tocopherol uptake in HEK293 cells overexpressing hOATP1B1. It counts as in vitro ADME.

The target in data set [6] is T1, hOATP1B3. As to the kind of experiment: Inhibition of EβG uptake in HEK293 cells overexpressing hOATP1B3.
Data set [7] has as its target T1, hOATP1B3. As to the kind of experiment: EβG uptake in HEK293 cells overexpressing hOATP1B3. In kind it is in vitro ADME.
For data set [8], the target named is T2, hOATP1B1. As to the kind of experiment: EβG uptake in HEK293 cells overexpressing hOATP1B1. It counts as in vitro ADME.
Data set [9] addresses T3, mOATP1B2 (Mus musculus, UniProt Q9JJL3).
T3 sequence (Q9JJL3 1-689): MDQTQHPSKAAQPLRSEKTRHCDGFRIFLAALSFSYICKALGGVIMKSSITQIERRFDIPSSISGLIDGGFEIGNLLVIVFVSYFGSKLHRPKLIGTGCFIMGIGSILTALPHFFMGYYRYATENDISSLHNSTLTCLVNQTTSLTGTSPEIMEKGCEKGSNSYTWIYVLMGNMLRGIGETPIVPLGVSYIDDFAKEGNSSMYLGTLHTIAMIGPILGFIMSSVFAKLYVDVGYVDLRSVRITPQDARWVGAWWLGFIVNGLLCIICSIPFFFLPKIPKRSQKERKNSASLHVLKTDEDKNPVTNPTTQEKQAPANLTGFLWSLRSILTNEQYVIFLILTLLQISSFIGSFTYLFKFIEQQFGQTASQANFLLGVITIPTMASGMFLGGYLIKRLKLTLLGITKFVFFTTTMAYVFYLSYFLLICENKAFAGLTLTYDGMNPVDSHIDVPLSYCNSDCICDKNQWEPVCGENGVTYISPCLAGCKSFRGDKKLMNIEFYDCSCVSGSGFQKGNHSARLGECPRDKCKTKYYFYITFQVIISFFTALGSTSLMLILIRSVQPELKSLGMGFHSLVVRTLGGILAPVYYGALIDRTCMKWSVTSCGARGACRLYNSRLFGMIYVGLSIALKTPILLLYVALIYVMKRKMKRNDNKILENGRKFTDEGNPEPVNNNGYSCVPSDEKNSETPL
As to the kind of experiment: EβG uptake in HEK293 cells overexpressing mOATP1B2. In kind it is in vitro ADME. Here is the method: DRG, sciatic and caudal nerves were prepared, stained with toluidine blue, and examined with a Zeiss Axioskop WideField Light Microscope, as described previously (10). Representative images were captured with a QIClick Digital CCD color camera. For DRG morphometrics, the somatic size was measured for each cell containing nucleolus, and at least 200 DRG neurons per animal were manually measured and analyzed with a computer-assisted image analyzer (ImageJ software, Bethesda, MD). For sciatic nerve, all myelinated fibers evaluable in the analyzed space were counted and the internal (axonal) and external (total) diameters of myelinated fibers were measured on at least 500 myelinated fibers/nerve. The histograms of g-ratio (axonal diameter/whole fiber diameter as a measure of myelination degree in each fiber) distribution were generated. An observer blinded to the group compositions performed all the morphometric determinations.
Cellular accumulation. Human embryonic kidney (HEK293) cells (ATCC) overexpressing OATP1B1, […]
After incubation, transport was halted by aspirating radiolabeled drug, and rinsing the cells three times with ice-cold 1X PBS. Total radioactivity originating from the substrates was measured by lysing the cells with 1N NaOH, neutralized with 2N HCL, and measuring total radioactivity by liquid scintillation counting using an LS 6500 Counter (Beckman). […]

This is an account of results in article PMC10443802, “Targeting a xenobiotic transporter to ameliorate vincristine-induced sensory neuropathy” (JCI Insight, 2023).

“And” between values parts separate entries of the source, which are not always exact repeats. Equal values may be shown once.

On to `Cc1c(C)c2c(c(C)c1O)CC[C@@](C)(CCC[C@H](C)CCC[C@H](C)CCCC(C)C)O2` [α-tocopherol], for which, in data set [1] (OATP1B3), the Substrate status result is listed as “transported substrate of OATP1B3”. The “α-tocopherol uptake (% of vehicle)” value is 86.9835% and 91.7117% and 121.305% and 85.9356% and 106.189% and 107.875% in data set [1] (VC cells, control for hOATP1B3); 213.78% and 147.762% and 148.702% and 127.524% and 133.603% and 184.662% in data set [1] (cells overexpressing hOATP1B3); 88.8965% and 111.905% and 99.1984% in data set [5] (VC cells, control for hOATP1B1); 109.574% and 76.2241% and 88.2425% in data set [5] (cells overexpressing hOATP1B1). In addition, the “Fold of Change KO/WT” value in [2] (DRG samples, untreated OATP1B2-deficient (KO) vs wild-type mice) is reported as 0.730; in data set [2] (untreated plasma, OATP1B2-deficient (KO) vs wild-type mice), 2.03. For the same compound, the “Level of α-tocopherol (% of wild-type)” value in data set [3] (DRG, OATP1B2(-/-) mice) was 28.1345 % of wild-type and 39.8965 % of wild-type and 39.7351 % of wild-type and 42.7289 % of wild-type and 36.0477 % of wild-type and 32.6784 % of wild-type; in [3] (DRG, Wild-type mice) it was 86.7441 % of wild-type and 109.645 % of wild-type and 120.39 % of wild-type and 114.671 % of wild-type and 77.0519 % of wild-type and 91.498 % of wild-type; in data set [3] (Plasma, OATP1B2(-/-) mice), 240.656 % of wild-type and 154.285 % of wild-type and 188.158 % of wild-type and 206.445 % of wild-type and 170.946 % of wild-type and 257.161 % of wild-type; in data set [3] (Plasma, Wild-type mice), 128.573 % of wild-type and 75.6647 % of wild-type and 109.778 % of wild-type and 78.7903 % of wild-type and 110.315 % of wild-type and 96.8791 % of wild-type. Besides, the “Level of α-tocopherol (% of wild-type baseline), relative DRG/plasma ratio” value in data set [3] (KO (OATP1B2-/-) mice) is 39.9993 % of wild-type baseline and 37.2252 % of wild-type baseline and 46.6384 % of wild-type baseline; in data set [3] (WT mice, baseline), 92.6568 % of wild-type baseline and 110.888 % of wild-type baseline and 96.4551 % of wild-type baseline. For the same compound, the “Level of α-tocopherol (% of wild-type baseline), DRG/Plasma Ratio” value is 39.9993% and 37.2252% and 46.6384% in [3] (KO mice); 92.6568% and 110.888% and 96.4551% in data set [3] (WT mice). Moreover, the “Level of α-tocopherol (% of wild-type baseline), Plasma” value in data set [3] (KO mice) is 178.006% and 210.63% and 138.224%; in data set [3] (WT mice), 108.759% and 91.8035% and 99.4376%. In [4], the “Share recovered in the liver” value was “up to 90%”. Further, the “Inhibition of transporter-mediated uptake of EβG” value in data set [6] was “can mediate inhibition of transporter-mediated uptake”.
As for `C[C@]12CC[C@@H]3c4ccc(O)cc4CC[C@H]3[C@@H]1CC[C@@H]2O[C@@H]1O[C@H](C(=O)O)[C@@H](O)[C@H](O)[C@H]1O` [EβG, estradiol-17β-ᴅ-glucuronide], the “EβG uptake (% of vector)” value in [7] was 5469.07 % of vector and 5408.81 % of vector and 5929.51 % of vector; in data set [8] it was 1260.82 % of vector and 1125.55 % of vector and 1194.22 % of vector; in data set [9] it was 2727.12 % of vector and 2435.39 % of vector and 2079.28 % of vector.
